From ChEMBL document CHEMBL1153979, “Inhibition of carbonic anhydrase isozymes with benzene sulfonamides incorporating thio, sulfinyl and sulfonyl glycoside moieties” (Bioorg Med Chem Lett, 2009)
pKi: −log10 of the molar value.

The molecules below were run against Carbonic anhydrase 9 (Homo sapiens, UniProt Q16790).

SMILES | pKi
CC(=O)OC[C@H]1O[C@@H](S(=O)(=O)Cc2cn(-c3ccc(S(N)(=O)=O)cc3)nn2)[C@H](OC(C)=O)[C@@H](OC(C)=O)[C@H]1OC(C)=O | 8.12
NS(=O)(=O)c1ccc(-n2cc(C[S+]([O-])[C@@H]3O[C@H](CO)[C@H](O)[C@H](O)[C@H]3O)nn2)cc1 (stereo not given in full) | 8.10
NS(=O)(=O)c1ccc(-n2cc(C[S+]([O-])[C@@H]3O[C@H](CO)[C@@H](O)[C@H](O)[C@H]3O)nn2)cc1 (stereo not given in full) | 8.01
CC(=O)OC[C@H]1O[C@@H](SCc2cn(-c3ccc(S(N)(=O)=O)cc3)nn2)[C@H](OC(C)=O)[C@@H](OC(C)=O)[C@H]1OC(C)=O | 8.07
CC(=O)OC[C@H]1O[C@@H](S(=O)(=O)Cc2cn(-c3ccc(S(N)(=O)=O)cc3)nn2)[C@H](OC(C)=O)[C@@H](OC(C)=O)[C@@H]1OC(C)=O | 8.03

Other lines, results leading:

pKi | SMILES
8.02 | NS(=O)(=O)c1ccc(-n2cc(CS(=O)(=O)[C@@H]3O[C@H](CO)[C@@H](O)[C@H](O)[C@H]3O)nn2)cc1
6.59 | NS(=O)(=O)c1ccc(-n2cc(CS[C@@H]3O[C@H](CO)[C@@H](O)[C@H](O)[C@H]3O)nn2)cc1
8.09 | NS(=O)(=O)c1ccc(-n2cc(CS(=O)(=O)[C@@H]3O[C@H](CO)[C@H](O)[C@H](O)[C@H]3O)nn2)cc1
8.21 | NS(=O)(=O)c1ccc(-n2cc(CS[C@@H]3O[C@H](CO)[C@H](O)[C@H](O)[C@H]3O)nn2)cc1
8.07 | CC(=O)OC[C@H]1O[C@@H](SCc2cn(-c3ccc(S(N)(=O)=O)cc3)nn2)[C@H](OC(C)=O)[C@@H](OC(C)=O)[C@@H]1OC(C)=O
